Reference: US6833372B2, “Non-peptide GnRH agents, Pharmaceutical compositions, and methods for their use” (Pfizer, Inc., priority 2002, dated 2004)

Legend:
[1] = target: T1, rat GnRH receptor (Rattus norvegicus, UniProt P30969); assay: Radioligand binding: inhibition of 125I-GnRH-A binding to rat GnRH receptor (rat pituitary membranes); conditions: read-out: Ki (nM), Inhibition Binding of 125I-GnRH-A to GnRH Receptors
T1 construct: or rat pituitaries (Pel Freez Biologicals, Rogers, Ark.) were homogenized; tissue Pel Freez Biologicals; host or cells: rat pituitaries (membrane preparation)
T1 sequence (P30969 1-327): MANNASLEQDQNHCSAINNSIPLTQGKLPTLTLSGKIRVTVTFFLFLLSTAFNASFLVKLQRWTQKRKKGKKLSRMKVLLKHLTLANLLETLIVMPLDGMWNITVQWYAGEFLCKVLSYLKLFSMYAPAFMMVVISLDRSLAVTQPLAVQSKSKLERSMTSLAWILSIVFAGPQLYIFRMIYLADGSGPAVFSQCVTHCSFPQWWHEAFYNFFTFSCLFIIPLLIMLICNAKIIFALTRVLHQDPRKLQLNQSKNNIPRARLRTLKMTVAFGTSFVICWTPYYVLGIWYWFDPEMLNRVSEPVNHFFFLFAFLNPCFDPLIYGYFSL
Method: (§1) HEK 293 cells containing mouse or human receptors, or rat pituitaries (Pel Freez Biologicals, Rogers, Ark.) were homogenized in buffer A containing: 50 mM Tris (pH 7.4), 0.32 M sucrose, 2 mM EGTA, 1 mM PMSF, 5 μg/ml aprotinen, 5 μg/ml Pepstatin A, and 1 μg/ml leupeptin. Homogenized cells were centrifuged at 4° C. at 20,000×g for 25 minutes, re-suspended in buffer A and re-centrifuged at 4° C. at 20,000×g for an additional 25 minutes. Total membrane protein was determined with a BCA kit (Pierce, Rockford, Ill.). Membranes were stored at −70° C. at a final membrane protein concentration of approximately 5 mg/ml.
(§2) The radioiodinated agonist analog of GnRH, [des-Gly^10,D-Ala^6]GnRH ethylamide (^125I-GnRH-A), was used as the radioligand. […] The reaction mixture was vortexed and incubated for 1 minute at room temperature. After one minute, the mixture was vortexed and allowed to incubate for an additional minute. 2 ml of 0.5 M acetic acid/1% BSA was added to the reaction tube and the mixture was added to a C18 Sep-Pak cartridge. The cartridge was washed with subsequent washes of 5 ml H2O and 5 ml 0.5 M acetic acid and then eluted with 5×1 ml of 60% CH3CN/40% 0.5 M acetic acid. The eluate was diluted with 3× volume of HPLC buffer A (0.1% TFA in H2O) and loaded onto a C18 column. The iodinated product was eluted over 20-25 min with a gradient of 25-100% CH3CN containing 0.1% TFA. The radioactive fractions (750 μl/fraction) were collected into clean polypropylene tubes containing 100 μl of 10% BSA. Fractions were assessed for biological activity by radioligand binding. Specific activity of the radioligand was approximately 2200 Ci/mmol.
(§3) Membranes were diluted to 0.01-0.5 mg/ml (depending upon the species of receptor) with assay buffer containing 50 mM HEPES (pH 7.4), 1 mM EDTA, 2.5 mM MgCl2, and 0.1% BSA. Membranes (diluted to utilize similar receptor numbers between assays) were incubated with approximately 0.04-0.06 nM ^125I-GnRH-A in the presence or absence of competing agents (0.1-10,000 nM) in a total volume of 200 μl in 96-well polypropylene plates for 1 hour at room temperature. Assays were stopped by rapid filtration onto 96-well GF/C filters soaked in 0.1% polyethylenimine (PEI) utilizing a Packard 96-well cell harvester. Filters were washed three times with ice-cold PBS (50 mM NaPO4, 0.9% NaCl, 2 mM MgCl2, and 0.02% NaN3, pH 7.4). 35 μl of scintillation cocktail was added to each filter well and filters were counted on a Packard Topcount. Control dose-response curves were generated to GnRH (0.1 nM-100 nM) in each competition binding experiment. Ki values were calculated from IC50 values according to Cheng et al., Biochemical Pharmacol. 22: 3099-3108, 1973. [formula]

[2] = target: T2, human GnRH receptors (Homo sapiens, UniProt P30968); assay: Radioligand binding: inhibition of 125I-GnRH-A binding to human GnRH receptor membranes; conditions: HEK 293 cell membranes
T2 construct: expressed in transfected cells; host or cells: HEK 293 cells, stably transfected; membranes
T2 sequence (P30968 1-328): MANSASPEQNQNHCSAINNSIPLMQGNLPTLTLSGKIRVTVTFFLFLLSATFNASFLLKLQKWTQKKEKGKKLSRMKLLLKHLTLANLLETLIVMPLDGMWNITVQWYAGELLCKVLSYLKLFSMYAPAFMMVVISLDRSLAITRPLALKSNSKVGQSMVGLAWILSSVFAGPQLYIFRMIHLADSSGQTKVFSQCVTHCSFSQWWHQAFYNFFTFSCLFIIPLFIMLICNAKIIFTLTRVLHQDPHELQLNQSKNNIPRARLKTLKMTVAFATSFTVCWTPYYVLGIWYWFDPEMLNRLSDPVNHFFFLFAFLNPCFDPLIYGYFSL
Method: HEK 293 cells stably transfected with mouse or human GnRH receptors as described above were grown in Dulbecco's high-glucose, modified Eagle's medium (DMEM) supplemented with 0.2% G418, 10% fetal bovine serum (FBS) and 100 U/mL penicillin/streptomycin. GH3 cells stably transfected with the rat GnRH receptor (GGH3) were provided by Dr. William Chin (Harvard Medical School, Boston, Mass.). These cells have been extensively characterized previously (Kaiser et al., 1997). The cells were grown in low glucose DMEM containing: 100U/mL penicillin/streptomycin, 0.6% G418 and 10% heat-inactivated FBS.
as §1, §2, §3

Row | SMILES | Ki [1] [nM] | Ki [2] [nM]
1 | COc1nc(N2CCN(CCN)CC2)nc(OC)c1NC(=O)c1ccc(Cc2cc3c(cc2C)C(C)(C)OC3(C)C)o1 [Example D15, N-{2-[4-(2-Aminoethyl)piperazin-1-yl]-4,6-dimethoxypyrimidin-5-yl}-5-[(1,1,3,3,6-pentamethyl-1,3-dihydro-2-benzofuran-5-yl)methyl]-2-furamide] | 2.4 | 3.5
2 | COc1nc(NCCCn2ccnc2)nc(OC)c1NC(=O)c1ccc(Cc2cc3c(cc2C)C(C)(C)OC3(C)C)o1 [Example D19, N-(2-{[3-(1H-Imidazol-1-yl)propyl]amino}-4,6-dimethoxypyrimidin-5-yl}-5-[(1,1,3,3,6-pentamethyl-1,3-dihydro-2-benzofuran-5-yl)methyl]-2-furamide] | 1.9 | 8.7
3 | CNCCNc1nc(OC)c(NC(=O)c2ccc(Cc3cc4c(cc3C)C(C)(C)OC4(C)C)o2)c(OC)n1 [Example D20, N-(4,6-Dimethoxy-2-{[2-(methylamino)ethyl]amino}-pyrimidin-5-yl}-5-[(1,1,3,3,6-pentamethyl-1,3-dihydro-2-benzofuran-5-yl)methyl]-2-furamide] | 0.5 | 1
4 | COc1nc(N(C)Cc2cccnc2)nc(OC)c1NC(=O)c1ccc(Cc2cc3c(cc2C)C(C)(C)OC3(C)C)o1 [Example D38, N-{4,6-Dimethoxy-2-[methyl(pyridin-3-ylmethyl)amino]pyrimidin-5-yl}-5-[(1,1,3,3,6-pentamethyl-1,3-dihydro-2-benzofuran-5-yl)methyl]-2-furamide] | 15 | 22
5 | CCCCC(CC)COCCCNc1nc(OC)c(NC(=O)c2ccc(Cc3cc4c(cc3C)C(C)(C)OC4(C)C)o2)c(OC)n1 (centres unmarked) [Example D39, N-[2-({3-[(2-Ethylhexyl)oxy]propyl}amino)-4,6-dimethoxypyrimidin-5-yl]-5-[(1,1,3,3,6-pentamethyl-1,3-dihydro-2-benzofuran-5-yl)methyl]-2-furamide] | 5.4 | 19
6 | COc1nc(N2CCC3CNC(=O)C3C2)nc(OC)c1NC(=O)c1ccc(Cc2cc3c(cc2C)C(C)(C)OC3(C)C)o1 (centres unmarked) [Example D40, N-[4,6-Dimethoxy-2-(3-oxooctahydro-5H-pyrrolo[3,4-c]pyridin-5-yl)pyrimidin-5-yl]-5-[(1,1,3,3,6-pentamethyl-1,3-dihydro-2-benzofuran-5-yl)methyl]-2-furamide] | 30 | 27
7 | COc1nc(N(C)CCCCCCO)nc(OC)c1NC(=O)c1ccc(Cc2cc3c(cc2C)C(C)(C)OC3(C)C)o1 [Example D41, N-{2-[(6-Hydroxyhexyl)(methyl)amino]-4,6-dimethoxypyrimidin-5-yl}-5-[(1,1,3,3,6-pentamethyl-1,3-dihydro-2-benzofuran-5-yl)methyl]-2-furamide] | 15 | 12
8 | COc1nc(NCCSCCO)nc(OC)c1NC(=O)c1ccc(Cc2cc3c(cc2C)C(C)(C)OC3(C)C)o1 [Example D42, N-[2-({2-[(2-Hydroxyethyl)thio]ethyl}amino)-4,6-dimethoxypyrimidin-5-yl]-5-[(1,1,3,3,6-pentamethyl-1,3-dihydro-2-benzofuran-5-yl)methyl]-2-furamide] | 0.64 | 1.6
9 | COc1nc(NCc2ccc(N)cc2)nc(OC)c1NC(=O)c1ccc(Cc2cc3c(cc2C)C(C)(C)OC3(C)C)o1 [Example D44, N-{2-[(4-Aminobenzyl)amino]-4,6-dimethoxypyrimidin-5-yl}-5-[(1,1,3,3,6-pentamethyl-1,3-dihydro-2-benzofuran-5-yl)methyl]-2-furamide] | 3.4 | 8.6
10 | CCOCCN(CCOCC)c1nc(OC)c(NC(=O)c2ccc(Cc3cc4c(cc3C)C(C)(C)OC4(C)C)o2)c(OC)n1 [Example D49, N-{2-[Bis(2-ethoxyethyl)amino]-4,6-dimethoxypyrimidin-5-yl}-5-[(1,1,3,3,6-pentamethyl-1,3-dihydro-2-benzofuran-5-yl)methyl]-2-furamide] | 45 | 36
11 | COc1nc(N[C@@H](CO)CSCc2ccccc2)nc(OC)c1NC(=O)c1ccc(Cc2cc3c(cc2C)C(C)(C)OC3(C)C)o1 [Example D50, N-(2-{[(1S)-2-(Benzylthio)-1-(hydroxymethyl)ethyl]amino}-4,6-dimethoxypyrimidin-5-yl)-5-[(1,1,3,3,6-pentamethyl-1,3-dihydro-2-benzofuran-5-yl)methyl]-2-furamide] | 19 | 24
12 | COc1nc(N(CC(C)O)CC(C)O)nc(OC)c1NC(=O)c1ccc(Cc2cc3c(cc2C)C(C)(C)OC3(C)C)o1 (centres unmarked) [Example D53, N-{2-[Bis(2-hydroxypropyl)amino]-4,6-dimethoxypyrimidin-5-yl)-5-[(1,1,3,3,6-pentamethyl-1,3-dihydro-2-benzofuran-5-yl)methyl]-2-furamide] | 2.6 | 4.8
13 | COc1nc(NCC2(O)CCN(C)CC2)nc(OC)c1NC(=O)c1ccc(Cc2cc3c(cc2C)C(C)(C)OC3(C)C)o1 [Example D56, N-(2-{[(4-Hydroxy-1-methylpiperidin-4-yl)methyl]amino}-4,6-dimethoxypyrimidin-5-yl)-5-[(1,1,3,3,6-pentamethyl-1,3-dihydro-2-benzofuran-5-yl)methyl]-2-furamide Acetate] | 14 | 30
14 | COc1nc(NCC(c2ccc[nH]2)C(F)(F)F)nc(OC)c1NC(=O)c1ccc(Cc2cc3c(cc2C)C(C)(C)OC3(C)C)o1 (centres unmarked) [Example D57, N-(4,6-Dimethoxy-2-{[3,3,3-trifluoro-2-(1H-pyrrol-2-yl)propyl]amino}pyrimidin-5-yl)-5-[(1,1,3,3,6-pentamethyl-1,3-dihydro-2-benzofuran-5-yl)methyl]-2-furamide] | 4.4 | 36
15 | COc1nc(NCCN(C)CCCCCO)nc(OC)c1NC(=O)c1ccc(Cc2cc3c(cc2C)C(C)(C)OC3(C)C)o1 [Example D58, N-[2-({2-[(5-Hydroxypentyl)(methyl)amino]ethyl}amino)-4,6-dimethoxypyrimidin-5-yl]-5-[(1,1,3,3,6-pentamethyl-1,3-dihydro-2-benzofuran-5-yl)methyl]-2-furamide] | 3.1 | 4.8
16 | COc1nc(N2CCc3nc(N(C)C)ncc3C2)nc(OC)c1NC(=O)c1ccc(Cc2cc3c(cc2C)C(C)(C)OC3(C)C)o1 [Example D59, N-{2-[2-(Dimethylamino)-7,8-dihydropyrido[4,3-d]pyrimidin-6(5H)-yl]-4,6-dimethoxypyrimidin-5-yl}-5-[(1,1,3,3,6-pentamethyl-1,3-dihydro-2-benzofuran-5-yl)methyl]-2-furamide] | 14 | 42
